What follows are compounds tested on HCV genotype 1b replicon (assay: HCV replicon assay, cell ELISA with antibody to replicon-encoded NS3/4A (genotype 1b replicon)). Conditions: Hepatitis C virus, 96 h, read-out: Replicon 1b IC50 (nM), HCV genotype 1b replicon cells, 96 hours incubation, NS3/4A ELISA readout.
Format: cell-based, hepatitis C virus
Method: The HCV NS5B inhibitory activity of the present compounds may be tested using assays known in the art. The HCV NS5B polymerase inhibitors described herein have activities in a genotype 1b replicon assay as described in the Examples. The assay is performed by incubating a replicon harboring cell-line in the presence of inhibitor for a set period of time and measuring the effect of the inhibitor on HCV replicon replication either directly by quantifying replicon RNA level, or indirectly by measuring enzymatic activity of a co-encoded reporter enzyme such as luciferase or β-lactamase. By performing a series of such measurements at different inhibitor concentrations, the effective inhibitory concentration of the inhibitor (EC50 or EC90) is determined. See Jan M. Vrolijk et al., A replicons-based bioassay for the measurement of interferons in patients with chronic hepatitis C, 110 J. VIROLOGICAL METHODS 201 (2003). Such assays may also be run in an automated format for high through-put screening. See Paul Zuck et al., A cell-based β-lactamase reporter gene assay for the identification of inhibitors of hepatitis C virus replication, 334 ANALYTICAL BIOCHEMISTRY 344 (2004).
Measurement of inhibition by compounds was performed using the HCV replicon system. Several different replicons encoding different HCV genotypes or mutations were used. In addition, potency measurements were made using different formats of the replicon assay, including different ways of measurements and different plating formats. See Jan M. Vrolijk et al., A replicons-based bioassay for the measurement of interferons in patients with chronic hepatitis C, 110 J. VIROLOGICAL METHODS 201 (2003); Steven S. Carroll et al., Inhibition of Hepatitis C Virus RNA Replication by 2′-Modified Nucleoside Analogs, 278(14) J. BIOLOGICAL CHEMISTRY 11979 (2003). However, the underlying principles are common to all of these determinations, and are outlined below.
Stable neomycin phosphotransferase encoding replicons-harboring cell lines were used, so all cell lines were maintained under G418 selection prior to the assay. Potency was determined using a cell ELISA assay with an antibody to the replicons encoded NS3/4a protease. See Caterina Trozzi et al., In Vitro Selection and Characterization of Hepatitis C Virus Serine Protease Variants Resistant to an Active-Site Peptide Inhibitor, 77(6) J. Virol. 3669 (2003). To initiate an assay, replicon cells were plated in the presence of a dilution series of test compound in the absence of G418. Typically, the assays were performed in a 96-well plate formate for manual operation, or a 384-well plate format for automated assay. Replicon cells and compound were incubated for 96 hours. At the end of the assay, cells were washed free of media and compound, and the cells were then lysed. RNA was quantified indirectly through detection of replicon-encoded NS3/4A protein levels, through an ELISA-based assay with an antibody specific for NS3/4A. IC50 determinations were calculated as a percentage of a DMSO control by fitting the data to a four-parameter fit function and the data obtained is provided in the table below.
`CCCCCN(c1cc2oc(-c3ccc(F)cc3)c(C(=O)NC)c2cc1-c1ccccc1)S(C)(=O)=O` [Example 20, 2-(4-fluorophenyl)-N-methyl-6-[(methylsulfonyl) (pentyl)amino]-5-phenyl-1-benzofuran-3-carboxamide] showed an IC50 of 66 nM.
With `CNC(=O)c1c(-c2ccc(F)cc2)oc2cc(N(CC3CCC3)S(C)(=O)=O)c(-c3ccccc3)cc12` [Example 21, 6-[(cyclobutylmethyl) (methylsulfonyl)amino]-2-(4-fluorophenyl)-N-methyl-5-phenyl-1-benzofuran-3-carboxamide] the IC50 was 115 nM.
`CNC(=O)c1c(-c2ccc(F)cc2)oc2cc(N(C3CCCC3)S(C)(=O)=O)c(-c3ccccc3)cc12` [Example 22, 6-[cyclopentyl (methylsulfonyl)amino]-2-(4-fluorophenyl)-N-methyl-5-phenyl-1-benzofuran-3-carboxamide] was tested, and the IC50 was 55 nM.
With `CCC(CC)CN(c1cc2oc(-c3ccc(F)cc3)c(C(=O)NC)c2cc1-c1ccccc1)S(C)(=O)=O` [Example 23, 6-[(2-ethylbutyl) (methylsulfonyl)amino]-2-(4-fluorophenyl)-N-methyl-5-phenyl-1-benzofuran-3-carboxamide] the IC50 was 374 nM.
In the case of `CCCCCCN(c1cc2oc(-c3ccc(F)cc3)c(C(=O)NC)c2cc1-c1ccccc1)S(C)(=O)=O` [Example 24, 2-(4-fluorophenyl)-6-[hexyl (methylsulfonyl)amino]-N-methyl-5-phenyl-1-benzofuran-3-carboxamide], the IC50 is reported as 182 nM.
`CNC(=O)c1c(-c2ccc(F)cc2)oc2cc(N(CCCC(C)C)S(C)(=O)=O)c(-c3ccccc3)cc12` [Example 25, 2-(4-fluorophenyl)-N-methyl-6-[(4-methylpentyl) (methylsulfonyl)amino]-5-phenyl-1-benzofuran-3-carboxamide] showed an IC50 of 166 nM.
For `CNC(=O)c1c(-c2ccc(F)cc2)oc2cc(N(CCC3CCCCC3)S(C)(=O)=O)c(-c3ccccc3)cc12` [Example 27, 6-[(2-cyclohexylethyl) (methylsulfonyl)amino]-2-(4-fluorophenyl)-N-methyl-5-phenyl-1-benzofuran-3-carboxamide], the IC50 was 384 nM.
Compound `CNC(=O)c1c(-c2ccc(F)cc2)oc2cc(N(CCCO)S(C)(=O)=O)c(-c3ccccc3)cc12` [Example 28, 2-(4-fluorophenyl)-6-[(3-hydroxypropyl) (methylsulfonyl)amino]-N-methyl-5-phenyl-1-benzofuran-3-carboxamide] has an IC50 of 46 nM.
With `CNC(=O)c1c(-c2ccc(F)cc2)oc2cc(N(CC(C)O)S(C)(=O)=O)c(-c3ccccc3)cc12` (stereo not drawn) [Example 29, 2-(4-fluorophenyl)-6-[(2-hydroxypropyl) (methylsulfonyl)amino]-N-methyl-5-phenyl-1-benzofuran-3-carboxamidc] the IC50 was 412 nM.
For `CNC(=O)c1c(-c2ccc(F)cc2)oc2cc(N(CCCCOC(C)=O)S(C)(=O)=O)c(-c3ccccc3)cc12` [Example 30, 4-{[2-(4-fluorophenyl)-3-(methylcarbamoyl)-5-phenyl-1-benzofuran-6-yl] (methylsulfonyl)amino}butyl acetate], the IC50 was 40 nM.
`C#CCN(c1cc2oc(-c3ccc(F)cc3)c(C(=O)NC)c2cc1-c1ccccc1)S(C)(=O)=O` [Example 34, 2-(4-fluorophenyl)-N-methyl-6-[(methylsulfonyl) (prop-2-yn-1-yl)amino]-5-phenyl-1-benzofuran-3-carboxamide] was tested, and the IC50 was 189 nM.
`C=CCN(c1cc2oc(-c3ccc(F)cc3)c(C(=O)NC)c2cc1-c1ccccc1)S(C)(=O)=O` [Example 35, 2-(4-fluorophenyl)-N-methyl-6-[(methylsulfonyl) (prop-2-en-1-yl)amino]-5-phenyl-1-benzofuran-3-carboxamide] showed an IC50 of 7 nM.
Compound `CNC(=O)c1c(-c2ccc(F)cc2)oc2cc(N(CCC=C(C)C)S(C)(=O)=O)c(-c3ccccc3)cc12` [Example 40, 2-(4-fluorophenyl)-N-methyl-6-[(4-methylpent-3-en-1-yl)(methylsulfonyl)amino]-5-phenyl-1-benzofuran-3-carboxamide] has an IC50 of 90 nM.
`CCOC(=O)CN(c1cc2oc(-c3ccc(F)cc3)c(C(=O)NC)c2cc1-c1ccccc1)S(C)(=O)=O` [Example 41, ethyl N-[2-(4-fluorophenyl)-3-(methylcarbamoyl)-5-phenyl-1-benzofuran-6-yl]-N-(methylsulfonyl) glycinate] was tested, and the IC50 was over 2000 nM.
Compound `CCOC(=O)CCCN(c1cc2oc(-c3ccc(F)cc3)c(C(=O)NC)c2cc1-c1ccccc1)S(C)(=O)=O` [Example 42, ethyl 4-{[2-(4-fluorophenyl)-3-(methylcarbamoyl)-5-phenyl-1-benzofuran-6-yl](methylsulfonyl)amino}butanoate] has an IC50 of 60 nM.
For `CNC(=O)c1c(-c2ccc(F)cc2)oc2cc(N(Cc3cccc(F)c3)S(C)(=O)=O)c(-c3ccccc3)cc12` [Example 53, 6-[(3-fluorobenzyl)(methyl-sulfonyl)amino]-2-(4-fluorophenyl)-N-methyl-5-phenyl-1-benzofuran-3-carboxamide], the IC50 was 373 nM.
Compound `CNC(=O)c1c(-c2ccc(F)cc2)oc2cc(NC(C)c3ccccc3)c(-c3ccccc3)cc12` (stereo not drawn) [Example 69, 2-(4-fluorophenyl)-N-methyl-5-phenyl-6-[(1-phenylethyl)amino]-1-benzofuran-3-carboxamide] has an IC50 of over 3000 nM.
`CNC(=O)c1c(-c2ccc(F)cc2)oc2cc(NCCN(C)c3ccccc3)c(-c3ccccc3)cc12` [Example 70, 2-(4-fluorophenyl)-N-methyl-6-({2-[methyl(phenyl)amino]ethyl}amino)-5-phenyl-1-benzofuran-3-carboxamide] was tested, and the IC50 was 329 nM.
In the case of `CNC(=O)c1c(-c2ccc(F)cc2)oc2cc(N(C)C(C)c3ccccc3)c(-c3ccccc3)cc12` (stereo not drawn) [Example 71, 2-(4-fluorophenyl)-N-methyl-6-[methyl(1-phenylethyl)amino]-5-phenyl-1-benzofuran-3-carboxamide], the IC50 is reported as over 2500 nM.
For `CCOC(=O)N(CCN(C)c1ccccc1)c1cc2oc(-c3ccc(F)cc3)c(C(=O)NC)c2cc1-c1ccccc1` [Example 72, ethyl[2-(4-fluorophenyl)-3-(methylcarbamoyl)-5-phenyl-1-benzofuran-6-yl]{2-[methyl(phenyl)amino]ethyl}carbamate], the IC50 was 2670 nM.
In the case of `CNC(=O)c1c(-c2ccc(F)cc2)oc2cc(NC(=O)CN(C)c3ccccc3)c(-c3ccccc3)cc12` [Example 73], the IC50 is reported as 143 nM.
Work on `CNC(=O)c1c(-c2ccc(F)cc2)oc2cc(N(C)C(=O)CN(C)c3ccccc3)c(-c3ccccc3)cc12` [Example 74, 2-(4-fluorophenyl)-N-methyl-6-[methyl(N-methyl-N-phenylglycyl)amino]-5-phenyl-1-benzofuran-3-carboxamide] yielded an IC50 of 395 nM.
`CNC(=O)c1c(-c2ccc(F)cc2)oc2cc(N3C(=O)O[C@H](c4ccccc4)[C@@H]3C)c(-c3ccccc3)cc12` [Example 77, 2-(4-fluorophenyl)-N-methyl-6-[(4S,5R)-4-methyl-2-oxo-5-phenyl-1,3-oxazolidin-3-yl]-5-phenyl-1-benzofuran-3-carboxamide] was tested, and the IC50 was 101 nM.
With `CNC(=O)c1c(-c2ccc(F)cc2)oc2cc(N(C)S(C)(=O)=O)c(-c3ccccc3F)cc12` [Example 78, 5-(2-fluorophenyl)-2-(4-fluorophenyl)-N-methyl-6-[methyl(methylsulfonyl)amino]-1-benzofuran-3-carboxamide] the IC50 was 215 nM.
`CNC(=O)c1c(-c2ccc(F)cc2)oc2cc(N(C)S(C)(=O)=O)c(-c3ccccc3OC)cc12` [Example 79, 2-(4-fluorophenyl)-5-(2-methoxyphenyl)-N-methyl-6-[methyl (methylsulfonyl)amino]-1-benzofuran-3-carboxamide] was tested, and the IC50 was 320 nM.
With `CNC(=O)c1c(-c2ccc(F)cc2)oc2cc(N(C)S(C)(=O)=O)c(-c3ccccc3C)cc12` [Example 80, 2-(4-fluorophenyl)-N-methyl-6-[methyl (methylsulfonyl)amino]-5-(2-methylphenyl)-1-benzofuran-3-carboxamide] the IC50 was 241 nM.
With `CNC(=O)c1c(-c2ccc(F)cc2)oc2cc(N(C)S(C)(=O)=O)c(-c3cccc(C)c3)cc12` [Example 81, 2-(4-fluorophenyl)-N-methyl-6-[methyl (methylsulfonyl)amino]-5-(3-methylphenyl)-1-benzofuran-3-carboxamide] the IC50 was 117 nM.

Reference: patent US20120328569A1, “INHIBITORS OF HEPATITIS C VIRUS NS5B POLYMERASE” (priority 2010, published 2012)
